Data: PMC8179515 (Chemical Science, 2021)

Columns and labels:
Aβ1-42 oligomers (Aβo) = Aβ1-42 oligomers (Aβo) (Homo sapiens, UniProt P05067); type: binding
albumin = settings: cited from earlier work
monomeric amyloid-β = settings: cited from earlier work

Sequence of Aβ1-42 oligomers (Aβo) (P05067 672-713): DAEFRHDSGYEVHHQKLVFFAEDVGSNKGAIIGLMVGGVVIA

## C=C(c1ccc(C(=O)O)cc1)c1cc2c(cc1C)C(C)(C)CCC2(C)C [Bexarotene]
Aβ1-42 oligomers (Aβo)
  Highest% STD: 14.60%

## CC(C(=O)O)c1ccc(-c2ccccc2)c(F)c1 (stereo not drawn) [flurbiprofen]
albumin
  bound to albumin: > 99%

## solanezumab
Monomeric amyloid-β
  affinity for central epitope KLVFFAED: picomolar affinity
